Read-outs that look alike come from different tables or passages of the source. Values belong to the compound of their own block, whether it stands above or below them. Where no end group is shown, it is not given here.
Key:
ACE [1] = molecular target: T1, ACE (Oryctolagus cuniculus, UniProt P12822); assay: ACE inhibitory activity (HHL substrate, hippuric acid absorbance at 228 nm); assay type: biochemical; details: synthesized peptide, untreated; ACE 25 mU, HHL 8.3 mmol/L, 37°C, 60 min, absorbance 228 nm; from regression y = 10.985 ln(x) ‒ 0.8859, R2 = 0.9458; read-out: ACE inhibition capacity (IC50)
T1 construct: purchased Sigma (St. Louis, MO, United States)
T1 sequence (P12822 34-1310): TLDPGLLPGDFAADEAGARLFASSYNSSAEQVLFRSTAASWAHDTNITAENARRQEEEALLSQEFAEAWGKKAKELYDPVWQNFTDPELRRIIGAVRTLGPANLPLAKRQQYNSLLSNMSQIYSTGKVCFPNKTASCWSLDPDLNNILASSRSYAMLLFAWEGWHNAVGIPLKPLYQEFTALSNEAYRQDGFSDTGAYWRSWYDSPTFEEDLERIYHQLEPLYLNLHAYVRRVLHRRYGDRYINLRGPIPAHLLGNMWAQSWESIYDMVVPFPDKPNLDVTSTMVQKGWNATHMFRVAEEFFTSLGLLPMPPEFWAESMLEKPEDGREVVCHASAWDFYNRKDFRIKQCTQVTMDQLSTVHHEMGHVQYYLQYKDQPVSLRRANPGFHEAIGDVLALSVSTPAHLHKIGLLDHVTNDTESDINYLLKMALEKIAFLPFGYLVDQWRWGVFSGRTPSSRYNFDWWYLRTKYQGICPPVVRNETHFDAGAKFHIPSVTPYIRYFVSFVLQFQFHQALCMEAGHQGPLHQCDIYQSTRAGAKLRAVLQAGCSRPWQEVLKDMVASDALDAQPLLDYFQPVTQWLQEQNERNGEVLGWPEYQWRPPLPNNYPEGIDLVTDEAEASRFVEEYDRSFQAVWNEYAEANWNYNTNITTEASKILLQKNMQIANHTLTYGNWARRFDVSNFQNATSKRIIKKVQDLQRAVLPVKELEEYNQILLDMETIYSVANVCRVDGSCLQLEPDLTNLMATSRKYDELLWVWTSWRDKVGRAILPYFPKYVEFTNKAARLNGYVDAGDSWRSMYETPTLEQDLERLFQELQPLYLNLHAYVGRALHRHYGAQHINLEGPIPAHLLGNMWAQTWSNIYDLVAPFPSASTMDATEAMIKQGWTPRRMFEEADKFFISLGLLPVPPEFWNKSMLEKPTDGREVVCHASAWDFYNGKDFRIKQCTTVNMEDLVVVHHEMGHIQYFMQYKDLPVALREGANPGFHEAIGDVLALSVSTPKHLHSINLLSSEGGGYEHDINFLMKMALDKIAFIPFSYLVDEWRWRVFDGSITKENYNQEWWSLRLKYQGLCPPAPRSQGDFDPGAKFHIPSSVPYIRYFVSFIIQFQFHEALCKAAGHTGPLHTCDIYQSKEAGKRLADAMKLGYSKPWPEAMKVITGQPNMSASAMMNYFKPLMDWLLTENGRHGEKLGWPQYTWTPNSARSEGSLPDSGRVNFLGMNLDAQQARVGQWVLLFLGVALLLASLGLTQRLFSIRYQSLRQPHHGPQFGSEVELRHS
Protocol: (§1) ACE inhibitory activity was determined using the procedure described by [Zaharuddin et al. (2022)]. Briefly, ACE (25 mU) was pre-incubated at 37°C for 10 min. Then ACE (75 µL), 225 µL of HHL (8.3 mmol/L), and the peptide solution (75 µL) were mixed and stirred at 75 rpm and 37°C for 60 min. The reaction was stopped by adding 375 µL of HCl (1 mol/L). Afterward 2.1 mL of ethyl acetate was added to extract the hippuric acid produced. The mixture was centrifuged at 14,000 g for 150 s. Subsequently, 1 mL of the upper solution (ethyl acetate extraction) was transferred to a glass test tube and heated at 120°C for 32 min. The tube was cooled to 25°C, deionized water (1 mL) was added, and the absorbance was measured at 228 nm. The control group was subjected to the same procedure, but without samples. The ACE inhibition ability of the samples was defined as the percentage of the difference in absorbance at 228 nm between the sample and control as compared to the absorbance at 228 nm of the control. The concentration of peptides required to inhibit half of the ACE activity was defined as the IC50.

ACE [2] = molecular target: T1, ACE; assay: Stability of ACE inhibitory activity under simulated gastrointestinal hydrolysis; assay type: in vitro ADME
Protocol: as §1
The simulation intestinal digest mucus (pH 6.80 ± 0.10) was composited of 6 g bile salt, 0.07 g pancreatin, 12.5 g NaHCO3, and 200 mL ultrapure water. […] The ACE inhibitory activity of the DOPKGH peptide was determined using untreated DOPKGH peptides for comparison.

ACE [3] = molecular target: T1, ACE; details: Val residue at the N-terminal; peptide from King Bolete mushrooms; ref Kaprasob et al., 2022; cited from earlier work
Description: Moreover, Lys or Arg residues in C-terminal tripeptide are instrumental in the ACE-inhibitory ability of peptides ([Urbizo-Reyes et al., 2022]).

[4] = Zinc solubility of peptide-Zn complexes during simulated gastrointestinal digestion; assay type: in vitro ADME; details: simulated intestinal digestion, from 120 to 240 min; p < 0.05
Protocol: Simultaneously, 5 mg of the DOPKGH peptide-Zn complexes was mixed with 50 mL of simulated gastric digested mucus (pH 2.00 ± 0.10) ([Sun et al., 2021]). After shaking at 37°C and 135 rpm for 90 min, Na2HPO4 (0.5 mol/L) was added and the mixture was quickly stirred until the pH of the digest increased to 6.80 ± 0.10. […] The stability of DOPKGH peptide-Zn complexes was expressed as the residual zinc concentration after digestion and as a percentage of the zinc concentration before digestion.

[5] = Zn-chelating ability (4-(2-Pyridinazo)-resorcinol method); assay type: physicochemical; details: 350 μg sample, zinc sulfate 0.25 mmol/L, DTT, HEPES-KOH buffer, 37°C, 12 min, PAR method, absorbance 500 nm; mean ± SD, at least three repeats
Protocol: DOPKGH peptides (350 μg), 0.5 mL zinc sulfate solution (0.25 mmol/L), 0.5 mL DTT (8 mmol/L), 1 mL HEPES-KOH buffer (100 μmol/L), and 8 mL dH2O were mixed thoroughly ([Li et al., 2023]). After stirring at 175 r/min and 37°C for 12 min, the zinc concentration of the reaction solution was measured using the 4-(2-Pyridinazo)-resorcinol method ([Udechukwu et al., 2018]). The standard regression curve of the zinc concentration (x, μg/mL) with absorbance at 500 nm (y) was y = 0.0901n(x) + 0.1012, and R^2 = 0.9802 ([Li et al., 2023]). The zinc chelation rate was defined as the reduction of zinc ions in the reaction solution per unit mass of sample (mg/g).
Amino acid sequence identification was conducted using a Q Exactive hybrid quadrupole orbitrap mass spectrometer (Thermo Fisher, Bremen, Germany) coupled with Peak-Studio-7.5-De-Novo™ software (Bioinformatics Solutions, Inc., Waterloo, Canada) according to the method described by [Li et al. (2022)]. The DOPKGH sequences were verified by matching with the sequences of Elaeis guineensis recorded in the Biotechnology Information Database (Bethesda, MD, United States). The Zn-chelating ability of the obtained sequences was measured using the 4-(2-Pyridinazo)-resorcinol method ([Udechukwu et al., 2018]). […] In addition, the physicochemical characteristics of the screened DOPKGH sequences were analyzed using the AHTPDB database.

ACE [6] = molecular target: T1, ACE; design: method as in 2 sources, one per row (each row's own in cited_ref): ref Wang et al., 2021 ||| ref Wei et al., 2022; details: cited from earlier work

- IC50 (ACE [1]): 103 µM
- ACE-inhibitory activity retained after gastrointestinal digestion (ACE [2]; simulated gastric (pepsin, pH 2.0, 80 min) then intestinal (pancreatin, pH 6.8, 150 min) digestion, 37°C, versus untreated peptide): 71.23%
- IC50 (ACE [2]; simulated gastric digest (pepsin 0.35 mg/mL, pH 2.0) 37°C 80 min, then intestinal digest (pancreatin, bile salt, pH 6.8) 37°C 150 min, regression y = 13.536ln(x) ‒ 17.297, R2 = 0.9528, read-out: IC50 against ACE after gastrointestinal digestion): 144 µM
Compound: EVPQAYIP

Compound: VSWNVLQEP [literature peptide identified in King Bolete mushrooms]
- Binding energy with ACE (ACE [3]): -9.1 kcal/mol

Compound: O=C([O-])[C@H](O)[C@@H](O)[C@H](O)[C@H](O)CO.O=C([O-])[C@H](O)[C@@H](O)[C@H](O)[C@H](O)CO.[Zn+2] [zinc gluconate, Zinc gluconate]
- Zinc solubility compared with zinc sulfate [4]: higher zinc solubility than that of zinc sulfate

Compound: QRLERCK [Gln-Arg-Leu-Asp-Arg-Cys-Lys, oligopeptide identified in defatted oil palm kernel globulin hydrolysates]
- Zinc chelating capacity [5]: 17.30 ± 1.46^g mg/g

Compound: GNPLSP
- IC50 (ACE [6]; peptide derived from Arthrospira platensis, ref Wang et al., 2021, read-out: ACE inhibition IC50): 264 µM

Compound: PHQPLPP
- ACE inhibition IC50 (ACE [6]; peptide identified in rubing cheese, ref Wei et al., 2022): 821 µg/mL
